US9101616B2, “Aryl substituted carboxamide derivatives as calcium or sodium channel blockers” (RaQualia Pharma Inc., priority 2009, dated 2015)

Each compound was assayed against T1, human T-type channel alpha-1H (CaV 3.2) (Homo sapiens, UniProt O95180) (assay: Ca2+ Influx Assay (cell-based fluorescent, FDSS)). Conditions: HEK 293 cells expressing human CaV 3.2.
T1 construct: expressed in transfected cells; host or cells: HEK 293
T1 sequence (O95180 whole entry): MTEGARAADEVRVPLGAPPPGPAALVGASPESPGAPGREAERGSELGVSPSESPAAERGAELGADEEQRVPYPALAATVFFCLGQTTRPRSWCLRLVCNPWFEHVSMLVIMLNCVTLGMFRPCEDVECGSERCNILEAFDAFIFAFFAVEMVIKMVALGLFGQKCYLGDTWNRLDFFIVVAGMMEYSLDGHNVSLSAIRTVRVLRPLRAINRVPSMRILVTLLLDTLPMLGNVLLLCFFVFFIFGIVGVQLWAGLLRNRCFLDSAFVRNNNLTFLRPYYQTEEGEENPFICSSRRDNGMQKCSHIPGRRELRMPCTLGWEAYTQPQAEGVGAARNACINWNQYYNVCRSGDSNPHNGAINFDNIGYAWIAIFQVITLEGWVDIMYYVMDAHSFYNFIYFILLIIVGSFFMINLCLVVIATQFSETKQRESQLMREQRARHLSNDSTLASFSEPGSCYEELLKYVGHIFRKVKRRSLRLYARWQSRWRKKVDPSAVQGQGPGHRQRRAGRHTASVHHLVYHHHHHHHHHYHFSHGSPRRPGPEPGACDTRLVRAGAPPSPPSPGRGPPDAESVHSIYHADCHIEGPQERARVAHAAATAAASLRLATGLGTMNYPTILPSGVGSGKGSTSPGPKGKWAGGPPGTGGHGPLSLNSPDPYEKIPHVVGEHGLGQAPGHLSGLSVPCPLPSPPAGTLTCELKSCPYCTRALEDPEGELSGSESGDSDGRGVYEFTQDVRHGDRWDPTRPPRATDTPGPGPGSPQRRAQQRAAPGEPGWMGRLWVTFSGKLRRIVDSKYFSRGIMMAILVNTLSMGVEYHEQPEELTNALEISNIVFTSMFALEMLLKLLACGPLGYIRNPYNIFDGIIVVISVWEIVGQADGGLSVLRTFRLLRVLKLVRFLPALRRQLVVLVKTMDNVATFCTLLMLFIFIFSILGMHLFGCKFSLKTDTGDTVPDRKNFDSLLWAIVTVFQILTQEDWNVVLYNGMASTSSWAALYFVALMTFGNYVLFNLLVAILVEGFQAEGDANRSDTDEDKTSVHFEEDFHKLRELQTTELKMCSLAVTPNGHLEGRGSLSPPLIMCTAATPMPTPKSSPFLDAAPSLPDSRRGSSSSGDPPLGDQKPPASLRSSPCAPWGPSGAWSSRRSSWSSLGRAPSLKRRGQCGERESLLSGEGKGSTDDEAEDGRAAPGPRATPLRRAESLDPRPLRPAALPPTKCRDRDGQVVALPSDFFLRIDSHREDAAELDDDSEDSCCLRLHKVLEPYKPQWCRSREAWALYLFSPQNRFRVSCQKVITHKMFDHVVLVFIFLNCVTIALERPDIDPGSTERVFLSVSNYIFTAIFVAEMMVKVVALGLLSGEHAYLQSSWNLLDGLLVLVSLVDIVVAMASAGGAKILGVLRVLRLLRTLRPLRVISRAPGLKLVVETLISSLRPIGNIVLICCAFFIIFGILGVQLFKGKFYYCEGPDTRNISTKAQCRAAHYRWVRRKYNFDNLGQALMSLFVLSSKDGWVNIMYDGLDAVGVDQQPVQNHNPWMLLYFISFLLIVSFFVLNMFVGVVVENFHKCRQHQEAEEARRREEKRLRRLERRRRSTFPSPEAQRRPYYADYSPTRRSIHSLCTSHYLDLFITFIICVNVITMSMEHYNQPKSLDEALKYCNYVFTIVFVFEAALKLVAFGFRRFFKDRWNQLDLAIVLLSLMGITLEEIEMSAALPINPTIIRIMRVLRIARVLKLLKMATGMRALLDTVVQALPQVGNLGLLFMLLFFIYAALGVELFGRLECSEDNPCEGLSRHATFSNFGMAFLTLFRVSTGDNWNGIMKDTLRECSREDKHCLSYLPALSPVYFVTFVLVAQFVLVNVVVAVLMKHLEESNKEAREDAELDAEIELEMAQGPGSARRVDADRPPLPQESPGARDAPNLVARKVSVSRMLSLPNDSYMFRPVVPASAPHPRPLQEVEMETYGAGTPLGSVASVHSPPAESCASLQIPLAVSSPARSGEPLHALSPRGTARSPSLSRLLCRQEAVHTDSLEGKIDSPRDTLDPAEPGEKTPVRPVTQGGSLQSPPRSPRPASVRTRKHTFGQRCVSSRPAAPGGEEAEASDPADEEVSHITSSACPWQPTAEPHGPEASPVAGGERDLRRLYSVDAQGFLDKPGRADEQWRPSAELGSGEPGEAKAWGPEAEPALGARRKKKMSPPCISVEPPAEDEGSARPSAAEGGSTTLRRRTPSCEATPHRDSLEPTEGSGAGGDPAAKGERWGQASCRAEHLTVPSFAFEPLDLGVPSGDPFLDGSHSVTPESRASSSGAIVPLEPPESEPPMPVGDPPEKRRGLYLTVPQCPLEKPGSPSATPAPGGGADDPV
Description: Inhibition of T-type calcium channel activity was determined by cell-based flu-orescent Ca^2+ influx assay, in which potassium ionophore was added to decrease resting membrane potential and extra-cellular high-K^+ stimulation was used to modulate the membrane potential of the cell. The changes in fluorescent signal were monitored by the cell imaging technology by Hamamatsu Photonics's Functional Drug Screening System (FDSS).
HEK 293 cells expressing the human T-type channel alpha-1H (CaV 3.2) were maintained in DMEM supplemented with 10% heat-inactivated FBS, 100 units/ml Penicillin, 100 microg/ml Streptomycin, 150 microg/ml Zeocin, 300 microg/ml Geneticin. The cells were grown in a 5% CO2 humidified incubator at 37° C.
• 1. Cells were harvested and seeded in a poly-D-lysine coated black-sided clear bottom 384-well plate at density of 10,000 cells/well at 24 hours prior to assay. • 2. Incubate at 37° C. in 5% CO2. Day Two: • 1. Wash each well with assay buffer (see below) and leave 20 RI using plate washer, ELx-405 Select CW (BIO-TEK). • 2. Add 20 μL of assay buffer containing 6 μM Fluo-4-AM (Molecular Probes) and 0.005% Pluronic F-127 to each well. • 3. Incubate the plate at 37° C. for 1 hour. • 4. Wash each well assay buffer (see below) and leave 20 μl using plate washer, ELx-405 Select CW (BIO-TEK). • 5. Add 10 μl of compound solution into each well by FDSS6000 and leave the plate for 4.5 min, and then add 10 μl of potassium ionophore solution. • 6. Add 20 μl of high-K^+ depolarizing solution (see below) and monitor the change of fluorescent signal.
The IC50 values for compounds of the present invention were determined from 7-point dose-response studies. Curves were generated using the average of duplicate wells for each data point. Finally, the IC50 values are calculated with the best-fit dose curve determined by XLfit.
With `C[C@@H](NC(=O)CCCc1c[nH]c2ccccc12)c1ccc(OCC(F)(F)F)cn1` [Example 57, (R)-4-(1H-indol-3-yl)-N-(1-(5-(2,2,2-trifluoroethoxy)pyridin-2-yl)ethyl)butanamide] the IC50 was ≤ 0.3 µM.
With `C[C@@H](NC(=O)C1CC1c1c[nH]c2c(F)cccc12)c1ccc(OCC(F)(F)F)cn1` (stereo in doubt) [Example 108, trans-2-(7-fluoro-1H-indol-3-yl)-N-((R)-1-(5-(2,2,2-trifluoroethoxy)pyridin-2-yl)ethyl)cyclopropanecarboxamide] the IC50 was ≤ 0.3 µM.
In the case of `C[C@@H](NC(=O)[C@@H]1C[C@H]1c1ccc2ccccc2n1)c1ccc(OCC(F)(F)F)cn1` (relative stereo) [Example 325, (1R*,2R*)-2-(quinolin-2-yl)-N-((R)-1-(5-(2,2,2-trifluoroethoxy)pyridin-2-yl)ethyl)cyclopropanecarboxamide], the IC50 is reported as ≤ 0.3 µM.
`C[C@@H](NC(=O)CCc1c[nH]c2ccccc12)c1ccc(OCC(F)(F)F)cn1` [Example 33, (R)-3-(1H-indol-3-yl)-N-(1-(5-(2,2,2-trifluoroethoxy)pyridin-2-yl)ethyl)propanamide] was tested, and the IC50 was ≤ 0.3 µM.
With `C[C@@H](NC(=O)C1CC1c1ccc2ccn(C)c2c1)c1ccc(OCC(F)(F)F)cn1` (stereo in doubt) [Example 167, trans-2-(1-methyl-1H-indol-6-yl)-N-((R)-1-(5-(2,2,2-trifluoroethoxy)pyridin-2-yl)ethyl)cyclopropanecarboxamide] the IC50 was ≤ 0.3 µM.
With `C[C@@H](NC(=O)C1CC1c1nc2ccccc2n1C)c1cnc(OCC(F)(F)F)cn1` (stereo in doubt) [Example 244, trans-2-(1-methyl-1H-benzo[d]imidazol-2-yl)-N-((R)-1-(5-(2,2,2-trifluoroethoxy)pyrazin-2-yl)ethyl)cyclopropanecarboxamide] the IC50 was ≤ 0.3 µM.
In the case of `C[C@@H](NC(=O)C1CC1c1nc2ccccc2n1C)c1ccc(OCC(F)(F)F)cn1` (stereo in doubt) [Example 243, trans-2-(1-methyl-1H-benzo[d]imidazol-2-yl)-N-((R)-1-(5-(2,2,2-trifluoroethoxy)pyridin-2-yl)ethyl)cyclopropanecarboxamide], the IC50 is reported as ≤ 0.3 µM.
In the case of `COc1ccc([C@H]2C[C@@H]2C(=O)N[C@H](C)c2cnc(OCC(F)(F)F)cn2)c(F)c1` (relative stereo) [Example 270, (1S*,2S*)-2-(2-fluoro-4-methoxyphenyl)-N-((R)-1-(5-(2,2,2-trifluoroethoxy)pyrazin-2-yl)ethyl)cyclopropanecarboxamide], the IC50 is reported as ≤ 0.3 µM.
`C[C@@H](NC(=O)[C@H]1C[C@@H]1c1ccccc1)c1ccc(OCC(F)(F)F)cn1` (relative stereo) [Example 280, (1S*,2S*)-2-phenyl-N-((R)-1-(5-(2,2,2-trifluoroethoxy)pyridin-2-yl)ethyl)cyclopropanecarboxamide] was tested, and the IC50 was ≤ 0.3 µM.
With `C[C@@H](NC(=O)[C@H]1C[C@@H]1c1ccc2cc[nH]c2c1)c1ccc(OCC(F)(F)F)cn1` (relative stereo) [Example 203, (1S*,2S*)-2-(1H-indol-6-yl)-N-((R)-1-(5-(2,2,2-trifluoroethoxy)pyridin-2-yl)ethyl)cyclopropanecarboxamide] the IC50 was ≤ 0.3 µM.
In the case of `C[C@@H](NC(=O)[C@H]1C[C@@H]1c1ccc(F)cc1Cl)c1cnc(OCC(F)(F)F)cn1` (relative stereo) [Example 268, (1S*,2S*)-2-(2-chloro-4-fluorophenyl)-N-((R)-1-(5-(2,2,2-trifluoroethoxy)pyrazin-2-yl)ethyl)cyclopropanecarboxamide], the IC50 is reported as ≤ 0.3 µM.
In the case of `C[C@@H](NC(=O)C1CC1c1cc2cc(F)ccc2[nH]1)c1ccc(OCC2CC2)cn1` (stereo in doubt) [Example 181, trans-N-((R)-1-(5-(cyclopropylmethoxy)pyridin-2-yl)ethyl)-2-(5-fluoro-1H-indol-2-yl)cyclopropanecarboxamide], the IC50 is reported as ≤ 0.3 µM.
`C[C@@H](NC(=O)[C@@H]1C[C@H]1c1cccc2[nH]ccc12)c1ccc(OCC(F)(F)F)cn1` (relative stereo) [Example 277, (1R*,2R*)-2-(1H-indol-4-yl)-N-((R)-1-(5-(2,2,2-trifluoroethoxy)pyridin-2-yl)ethyl)cyclopropanecarboxamide] was tested, and the IC50 was ≤ 0.3 µM.
For `C[C@@H](NC(=O)C1CC1c1cc2ccccc2cn1)c1ccc(OCC(F)(F)F)cn1` (stereo in doubt) [Example 172, trans-2-(isoquinolin-3-yl)-N-((R)-1-(5-(2,2,2-trifluoroethoxy)pyridin-2-yl)ethyl)cyclopropanecarboxamide], the IC50 was ≤ 0.3 µM.
For `C[C@@H](NC(=O)[C@@H]1C[C@H]1c1cc2ccccc2[nH]1)c1cnc(OCC(F)(F)F)cn1` (relative stereo) [Example 226, (1R*,2R*)-2-(1H-indol-2-yl)-N-((R)-1-(5-(2,2,2-trifluoroethoxy)pyrazin-2-yl)ethyl)cyclopropanecarboxamide], the IC50 was ≤ 0.3 µM.
With `C[C@@H](NC(=O)C1CC1c1c[nH]c2ccc(F)cc12)c1ccc(OCC(F)(F)F)cn1` (stereo in doubt) [Example 110, trans-2-(5-fluoro-1H-indol-3-yl)-N-((R)-1-(5-(2,2,2-trifluoroethoxy)pyridin-2-yl)ethyl)cyclopropanecarboxamide] the IC50 was ≤ 0.3 µM.
With `C[C@@H](NC(=O)[C@H]1C[C@@H]1COc1cccc(F)c1)c1ccc(OCC(F)(F)F)cn1` (relative stereo) [Example 294, (1S*,2S*)-2-((3-fluorophenoxy)methyl)-N-((R)-1-(5-(2,2,2-trifluoroethoxy)pyridin-2-yl)ethyl)cyclopropanecarboxamide] the IC50 was ≤ 0.3 µM.
In the case of `C[C@@H](NC(=O)[C@H]1C[C@@H]1c1cc2ccccc2[nH]1)c1ccc(OCC(F)(F)F)nc1` (relative stereo) [Example 223, (1S*,2S*)-2-(1H-indol-2-yl)-N-((R)-1-(6-(2,2,2-trifluoroethoxy)pyridin-3-yl)ethyl)cyclopropanecarboxamide], the IC50 is reported as ≤ 0.3 µM.
With `C[C@@H](NC(=O)[C@H]1C[C@@H]1c1ccc(OCc2ccccn2)cc1)c1ccc(OCC(F)(F)F)cn1` (relative stereo) [Example 305, (1S*,2S*)-2-(4-(pyridin-2-ylmethoxy)phenyl)-N-((R)-1-(5-(2,2,2-trifluoroethoxy)pyridin-2-yl)ethyl)cyclopropanecarboxamide] the IC50 was ≤ 0.3 µM.
With `C[C@@H](NC(=O)C1CC1c1c[nH]c2ccc(C#N)cc12)c1ccc(OCC(F)(F)F)cn1` (stereo in doubt) [Example 111, trans-2-(5-cyano-1H-indol-3-yl)-N-((R)-1-(5-(2,2,2-trifluoroethoxy)pyridin-2-yl)ethyl)cyclopropanecarboxamide] the IC50 was ≤ 0.3 µM.
`C[C@@H](NC(=O)[C@H]1C[C@@H]1c1nc2ccccc2[nH]1)c1cnc(OCC(F)(F)F)cn1` (relative stereo) [Example 286, (1S*,2S*)-2-(1H-benzo[d]imidazol-2-yl)-N-((R)-1-(5-(2,2,2-trifluoroethoxy)pyrazin-2-yl)ethyl)cyclopropanecarboxamide] was tested, and the IC50 was ≤ 0.3 µM.
`C[C@@H](NC(=O)[C@H]1C[C@@H]1COc1ccc(F)cc1)c1ccc(OCC(F)(F)F)cn1` (relative stereo) [Example 296, (1S*,2S*)-2-((4-fluorophenoxy)methyl)-N-((R)-1-(5-(2,2,2-trifluoroethoxy)pyridin-2-yl)ethyl)cyclopropanecarboxamide] was tested, and the IC50 was ≤ 0.3 µM.
For `C[C@@H](NC(=O)[C@@H]1C[C@H]1c1nc2ccccc2[nH]1)c1ccc(OCC(F)(F)F)cn1` (relative stereo) [Example 260, (1R*,2R*)-2-(1H-benzo[d]imidazol-2-yl)-N-((R)-1-(5-(2,2,2-trifluoroethoxy)pyridin-2-yl)ethyl)cyclopropanecarboxamide], the IC50 was ≤ 0.3 µM.
For `C[C@@H](NC(=O)[C@@H]1C[C@H]1c1cccc2cc[nH]c12)c1ccc(OCC2CC2)cn1` (relative stereo) [Example 317, (1R*,2R*)-N-((R)-1-(5-(cyclopropylmethoxy)pyridin-2-yl)ethyl)-2-(1H-indol-7-yl)cyclopropanecarboxamide], the IC50 was ≤ 0.3 µM.
With `COc1ccc(C2CC2C(=O)N[C@H](C)c2ccc(OCC(F)(F)F)cn2)cc1C` (stereo in doubt) [Example 202, trans-2-(4-methoxy-3-methylphenyl)-N-((R)-1-(5-(2,2,2-trifluoroethoxy)pyridin-2-yl)ethyl)cyclopropanecarboxamide] the IC50 was ≤ 0.3 µM.
With `C[C@@H](NC(=O)C1CC1c1ccc2cnn(C)c2c1)c1cnc(OCC(F)(F)F)cn1` (stereo partly drawn) [Example 229, trans-2-(1-methyl-1H-indazol-6-yl)-N-((R)-1-(5-(2,2,2-trifluoroethoxy)pyrazin-2-yl)ethyl)cyclopropanecarboxemide] the IC50 was ≤ 0.3 µM.
`C[C@@H](NC(=O)[C@@H]1C[C@H]1c1c(F)cc(F)cc1F)c1ccc(OCC2CC2)cn1` (relative stereo) [Example 266] was tested, and the IC50 was ≤ 0.3 µM.
In the case of `C[C@@H](NC(=O)C1CC1Cn1ccc2ccccc21)c1ccc(OCC(F)(F)F)cn1` (stereo in doubt) [Example 182, trans-2-((1H-indol-1-yl)methyl)-N-((R)-1-(5-(2,2,2-trifluoroethoxy)pyridin-2-yl)ethyl)cyclopropanecarboxamide], the IC50 is reported as ≤ 0.3 µM.
